For data set [1], the target named is T1, N. gonorrhoeae RNase P holoenzyme (Neisseria gonorrhoeae, UniProt Q5F4W3).
T1 sequence (Q5F4W3 1-121): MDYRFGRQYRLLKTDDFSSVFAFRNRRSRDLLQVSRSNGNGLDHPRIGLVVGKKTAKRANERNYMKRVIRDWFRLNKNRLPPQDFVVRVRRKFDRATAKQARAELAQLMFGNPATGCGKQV
In words: biochemical. As to conditions: 32P-labelled pGln substrate, room temperature; read-out: N. gonorrhoeae Gel assay IC50(μM) (Example 16). The method, then: RNase P Inhibition Polyacrylamide Gel Assay
The substrate, the precursor of tRNA^Gln, (pGln), from Synechocystis (Pascual and Vioque, 1999), was synthesized in vitro from the corresponding cDNA by T7 RNA polymerase in the presence of α^32P-GTP. Each control RNase P reaction of 10 μl contained 50 mM Tris-HCl (pH 7.8), 10 mM MgCl2, 100 mM NH4Cl, 1 mM dithiothreitol, and 0.4-1.0 pmol pGln substrate, radiolabeled to a specific activity of 1000-10,000 cpm/pmol. The reaction mixture, containing 0.1-1 nM holoenzyme, was incubated for 5-60 min at room temperature (18-24° C.), and the reaction was terminated by addition of an equal volume of 40 mM EDTA/8 M urea. The samples were electrophoresed in denaturing 8% polyacrylamide gels. The activity was quantified by exposure of the gel to a phosphorimaging screen. For test reactions that require the addition of compounds, the RNA subunits were pre-incubated with compound for 10 min at room temperature in the presence of buffer, followed by addition of the protein subunit. After a further 10 minutes of incubation, the radiolabeled substrate was added, and the reaction initiated. Products were analyzed as just described. The IC50 was the concentration of compound that was required to inhibit RNase P activity by 50%.

Data set [2] concerns the target N. gonorrhea RNase P (M1 RNA + C5 protein) (Neisseria gonorrhoeae, UniProt Q5F4W3). Briefly: Time resolved fluorescence (TRF) RNase P inhibition assay. In kind it is biochemical. As to conditions: 30 min enzyme reaction, ptGLN substrate; read-out: N. gonorrhoeae TRF IC50(μM) (Example 15). The text has this:
The ability of compounds of the invention to inhibit RNase P enzymes can be assessed by standard techniques. For example, the cleavage of ptRNA^Gln by the enzyme N. Gonorrhea RNase P, can be monitored in the presence and absence of a candidate compound as described in the Example 15. The progress of the RNase P-mediated cleavage reaction can be assessed by measuring the […] hybridized to the cleaved substrate.
Time Resolved Fluorescence RNase P Inhibition Assay
96-well Nunc MaxiSorp FluoroNunc plates were coated with 50 μl/well of 1 μg/ml of streptavidin in base buffer (150 mM KCl, 5 mM MgCl2, 50 mM Tris, pH 7.6) and incubated overnight. The plates were washed using TRF.96 protocol, and then blocked with 150 μl of a 1 mg/ml BSA solution in base buffer and incubated with shaking for sixty minutes. The plates were then washed twice with base buffer plus 0.01% Tween20. 50 μl of 40 nM T17-bt (biotinylated DNA oligonucleotide complementary to the RNaseP substrate leader sequence used to capture intact RNaseP substrate) was then added to all wells, and the plates were incubated with shaking for 1 hr.
A 0.4 nM solution of N. gonorrhea M1 RNA was made from a 1 μM stock solution. A 0.5 nM solution of N. gonorrhea C5 protein is made by diluting a 10 μM stock. ΔUL-ptGLN UTP-bt (10 μM stock) was diluted into PA buffer for a concentration of 40 nM.
Compounds were serially diluted in DMSO from 20 mM stocks to 6, 2, 0.6, 0.2, and 0.06 mM dilutions. These titrations were then diluted (2 μl to 100) in PA buffer, and 12.5 μl of each concentration was added in duplicate to a 96-well V-bottom polypropylene plate. The highest concentration was put in row G and the lowest in row B. Rows A & H received 12.5 μl of DMSO/PA buffer.
The enzyme reaction was initiated in the V-bottom polypropylene plates containing compound dilutions by adding 12.5 μl of the N. gonorrhea M1 solution to rows A-G. PA buffer was added to row H. 12.5 μl of the C5 solution was added similarly to the M1 solutions. 12.5 μl of the substrate solution was then added to all wells. The plates were incubated for 30 minutes at which time 12.5 μl of stop buffer was added to all wells. (Stop buffer: 500 μg/ml polyC/50 nM SA-Eu in 335 mM MgCl2 PA buffer).
The T17-biotin-coated plate was washed three times, and 37.5 μl of 75 mM MgCl2 PA buffer was added to each well. After 30 minutes incubation with the stop buffer, 12.5 μl from all of the enzyme reaction wells was transferred to the T17 plates. The plates were then incubated for 1.5 hr at room temperature with shaking. The plates were washed three times and 40 μl of Delfia enhancement solution (Wallac Oy) was added to all wells. The plates were then read on the Victor 2 plate reader.

The next data set relates to N. gonorrhoeae. Briefly: Bacterial inhibition assay (growth, MTS readout). In kind it is cell-based. The note with it: CAMHB-3% LHB medium, 35° C., 5% CO2, 24 hours. The method, then:
(§1) Compounds of the invention (see Table 5) were assayed for their ability to inhibit bacterial growth. Compounds were diluted from 10 mM DMSO stocks to 3 mM and 1 mM in DMSO. The compounds were further diluted from these stocks into saline for 200, 120, and 20 μM stocks. Control antibiotics were diluted similarly. Overnight cultures of bacteria were made in the following manner. N. gonorrhea was streaked onto a chocolate agar plate and incubated at 35° C./5% CO2. Rather than make an overnight culture of S. pyogenes, a loopful of S. pyogenes from a blood plate or a stock plate was used the following day for direct cell suspension.
(§2) On the following day bacteria were prepared by dilution into saline with O.D. […] readings taken to determine the concentration of the bacteria. CFUs (colony forming units) were determined using the formula: CFU/mL=OD625×(1.5×10^8 CFU/mL/OD McFarland std)×dilution. The four bacterial cultures were diluted initially to 5.5×10^7 CFU/mL. The bacteria were then further diluted into medium to 5.5×10^5 CFU/mL for S. pyogenes and 5.5×10^6 CFU/mL for N. gonorrhea. S. pyogenes and N. gonorrhea were grown in CAMHB-3% LHB medium. The bacteria were added one per plate at 200 μL per well. Compounds were added in 10 μL aliquots for final concentrations of 10, 3, and 1 μM in duplicate. Control antibiotics, penicillin for S. pyogenes and ciprofloxacin for N. gonorrhea, were added from 0.8 mg/ml to 0.003 mg/ml. Plates were incubated at 35° C. with O2 for 16-20 hours for S. pyogenes, and read at OD665 in a Victor2 plate reader. Plates were incubated at 35° C. with 5% CO2 for 24 hours for N. gonorrhea at which time 40 μL of MTS reagent is added per well and incubated for 1 hour in same incubator. The plates were read at OD490. Compounds were tested at 1 μM, 3 μM, and 10 μM concentrations. The results, which are expressed as a percentage of the control, were calculated using equation 2. In this equation, O.D. is optical density; (O.D. compounds+bacteria) is the optical density observed for bacteria grown in the presence of a compound of the invention; (O.D. blank) is the optical density in the absence of bacteria; and (O.D. bacteria) is the optical density observed for bacteria growing uninhibited. Other RNase P inhibitors may be tested similarly using any bacteria of interest. [formula]

Data set [3] relates to peripheral blood mononuclear cells (PBMC). In words: Cellular toxicity assay (MTS) on PBMC. As to conditions: 24 hours incubation, MTS reagent; read-out: PBMC's TC50. In kind it is cell-based, human. The method, then:
(§3) Compounds of the invention (see Table 6) were assayed for cellular toxicity as follows. Whole blood was drawn from a volunteer, and the red cells were separated from the buffy coat cells by centrifugation over ficoll-paque. The resulting peripheral blood mononuclear cells (PBMC) were collected from the interface and washed extensively with PBS by centrifugation to remove platelets and cellular debris. The cells were then plated in 96-well tissue culture plates at a density of 5×10^5 cells per mL at 200 μL per well. After an hour incubation, the candidate compounds were added at the appropriate concentrations diluted from DMSO stocks into assay buffer (RPMI medium supplemented with 10% FCS). The cells were incubated at 37° C., 100% humidity and 5% CO2 for 24 hours at which time MTS reagent was added per the manufacturer's (Promega) instructions. After 2-3 hours incubation the optical density of the wells was read on a spectrophotometer. […] The data are evaluated using equation 2 as described in Example 17, where bacterial cells are replaced by PBMC cells in the measurements. The data describes the toxicity of these compounds to a representative human cell population (PBMC's).

The test system of the next data set is S. pyogenes. In words: Bacterial inhibition assay (growth, OD readout). In kind it is cell-based. As to conditions: CAMHB-3% LHB medium, 35° C., 16-20 hours. The method, then: as §1, §2
Data set [4] can be described thus: Cellular toxicity assay (MTS) on PBMC. The data set is classed as cell-based, human. The note with it: human, peripheral blood mononuclear cells (PBMC); 24 hours incubation, MTS reagent; read-out: PBMC's TC50. The method, then: as §3
For orientation: Tetrazolium assays rely on reduction of a dye to a coloured formazan, in cell work by metabolically active cells.

Structures are written as SMILES. Converted amounts (≈) assume the structure as drawn.

For `CC(=NNC(=N)N)c1cccc(NC(=O)[C@H](Cc2ccc(-c3ccccc3)cc2)NC(=O)c2cccc(I)c2)c1` [MES 10908, Guanylhydrazone of (S)-1-(3-iodobenzoyl)-N-(3-acetylphenyl)biphenyl-alaninamide], the IC50 is 6 µM in data set [1] and 5 µM in data set [2]. In addition, the MIC against N. gonorrhoeae was more than 100 µM; with S. pyogenes it was 10 µM (≈ 6.45 µg/mL). The CC50 in data set [3] was found to be 5 µM.
Take `CC(=NNC(=N)N)c1ccc(NC(=O)Nc2ccc(C(C)=NNC(=N)N)cc2)cc1` [MES 10950, Bisguanylhydrazone of N,N′-bis(4-acetylphenyl)urea]: the IC50 in data set [1] stood at 7 µM; in data set [2], 6 µM. Further, the figures for the MIC with N. gonorrhoeae (Neisseria gonorrhoeae) and against S. pyogenes (Streptococcus pyogenes) were 30 µM (≈ 12.3 µg/mL) and 10 µM (≈ 4.08 µg/mL), respectively. Also, the CC50 at 24 h in data set [4] was more than 100 µM.
Regarding `CC(=NNC(=N)N)c1cccc(NC(=O)Nc2cccc(C(C)=NNC(=N)N)c2)c1` [MES 10949, Bisguanylhydrazone of N,N-bis(3-acetylphenyl)urea], the IC50 stood at 30 µM in data set [1] and 6 µM in data set [2]. Also, the MIC against N. gonorrhoeae (Neisseria gonorrhoeae) was found to be 100 µM (≈ 40.8 µg/mL); against S. pyogenes (Streptococcus pyogenes) it was 30 µM (≈ 12.3 µg/mL). For the same compound, the CC50 at 24 h in data set [4] is more than 100 µM.

As usually defined, the IC50 is the concentration at which inhibition is half-maximal. By MIC is commonly meant the lowest concentration that inhibits growth of the organism.

Values taken from patent publication US20050187409A1, “Inhibitors of RNase P proteins as antibacterial compounds” (priority 2003, published 2005).
